Experimental data from ChEMBL document CHEMBL3217479, “Overcoming retinoic acid receptor- based testicular toxicity in the optimisation of glucokinase activators” (Medchemcomm, 2011).
Converted amounts (≈) assume the structure as drawn.

Legend:
[1] = Apparent permeability from apical to basolateral side of human Caco2 cells; assay type: ADME, cell-based; conditions: Caco-2
[2] = Solubility of the compound; assay type: physicochemical
[3] = Lipophilicity, log D of the compound; assay type: physicochemical; conditions: octanol/water
Hexokinase-4 = target: T1, Hexokinase-4 (Homo sapiens, UniProt P35557); assay: Activation of glucokinase (unknown origin)
T1 sequence (P35557 whole entry): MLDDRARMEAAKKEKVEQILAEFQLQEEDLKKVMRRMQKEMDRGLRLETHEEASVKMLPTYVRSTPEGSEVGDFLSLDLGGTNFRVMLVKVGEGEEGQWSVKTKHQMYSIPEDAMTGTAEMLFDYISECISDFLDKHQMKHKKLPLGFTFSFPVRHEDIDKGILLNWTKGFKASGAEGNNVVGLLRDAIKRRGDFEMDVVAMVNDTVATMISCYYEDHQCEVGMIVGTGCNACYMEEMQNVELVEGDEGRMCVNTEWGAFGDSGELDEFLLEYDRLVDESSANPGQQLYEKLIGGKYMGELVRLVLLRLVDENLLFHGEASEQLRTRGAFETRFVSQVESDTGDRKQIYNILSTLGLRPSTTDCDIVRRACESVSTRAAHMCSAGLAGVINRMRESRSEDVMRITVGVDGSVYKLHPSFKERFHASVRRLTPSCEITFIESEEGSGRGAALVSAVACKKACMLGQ

[4] = Toxicity in testis (unknown origin); assay type: tissue-based
[5] = target: T2, Retinoic acid receptor beta (Homo sapiens, UniProt P10826); assay: Inhibition of RAR beta (unknown origin)
T2 sequence (P10826 whole entry): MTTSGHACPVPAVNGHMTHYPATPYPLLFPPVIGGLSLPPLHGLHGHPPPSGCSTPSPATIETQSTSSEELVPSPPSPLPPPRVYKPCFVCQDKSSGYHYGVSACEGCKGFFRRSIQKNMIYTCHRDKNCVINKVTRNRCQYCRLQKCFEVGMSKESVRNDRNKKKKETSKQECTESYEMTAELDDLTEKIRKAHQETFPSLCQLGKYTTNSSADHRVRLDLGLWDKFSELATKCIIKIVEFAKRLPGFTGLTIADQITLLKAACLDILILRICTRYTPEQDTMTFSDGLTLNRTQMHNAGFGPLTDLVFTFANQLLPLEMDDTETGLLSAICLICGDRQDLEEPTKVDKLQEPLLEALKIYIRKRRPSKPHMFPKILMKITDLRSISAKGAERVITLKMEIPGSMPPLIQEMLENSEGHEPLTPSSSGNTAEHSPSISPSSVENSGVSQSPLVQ

[6] = target: T3, Retinoic acid receptor gamma (Homo sapiens, UniProt P13631); assay: Inhibition of RAR gamma (unknown origin)
T3 sequence (P13631 whole entry): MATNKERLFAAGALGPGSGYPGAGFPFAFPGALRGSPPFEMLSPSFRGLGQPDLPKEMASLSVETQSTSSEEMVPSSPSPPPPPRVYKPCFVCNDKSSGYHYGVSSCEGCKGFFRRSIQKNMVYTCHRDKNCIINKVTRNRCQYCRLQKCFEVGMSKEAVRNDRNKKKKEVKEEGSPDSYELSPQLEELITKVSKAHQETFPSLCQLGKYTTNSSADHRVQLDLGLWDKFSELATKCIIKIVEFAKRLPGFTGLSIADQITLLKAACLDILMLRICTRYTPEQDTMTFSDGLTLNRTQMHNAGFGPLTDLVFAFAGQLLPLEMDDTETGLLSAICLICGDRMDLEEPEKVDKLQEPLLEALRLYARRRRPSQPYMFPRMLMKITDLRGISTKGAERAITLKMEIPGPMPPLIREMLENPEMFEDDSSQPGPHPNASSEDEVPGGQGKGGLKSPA

[7] = target: T4, Retinoic acid receptor alpha (Homo sapiens, UniProt P10276); assay: Inhibition of RAR alpha (unknown origin)
T4 sequence (P10276 whole entry): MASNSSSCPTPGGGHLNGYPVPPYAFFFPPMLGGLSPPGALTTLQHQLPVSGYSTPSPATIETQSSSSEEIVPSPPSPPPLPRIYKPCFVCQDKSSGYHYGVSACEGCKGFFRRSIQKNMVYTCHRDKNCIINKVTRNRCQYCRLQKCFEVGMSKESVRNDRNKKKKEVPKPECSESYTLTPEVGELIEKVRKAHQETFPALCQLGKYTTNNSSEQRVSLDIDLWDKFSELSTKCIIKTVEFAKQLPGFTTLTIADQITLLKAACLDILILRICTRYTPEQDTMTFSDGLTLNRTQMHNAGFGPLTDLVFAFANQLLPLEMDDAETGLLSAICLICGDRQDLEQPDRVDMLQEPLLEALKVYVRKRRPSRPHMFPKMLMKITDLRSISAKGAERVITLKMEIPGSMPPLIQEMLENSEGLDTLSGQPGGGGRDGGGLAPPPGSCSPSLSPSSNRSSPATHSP

Rattus norvegicus [8] = assay: Antidiabetic activity in rat assessed as reduction of glucose AUC at 10 mg/kg by oral glucose tolerance test; assay type: functional
[9] = target: Voltage-gated inwardly rectifying potassium channel KCNH2 (Homo sapiens, UniProt Q12809)
Chain of Voltage-gated inwardly rectifying potassium channel KCNH2 (Q12809 whole entry): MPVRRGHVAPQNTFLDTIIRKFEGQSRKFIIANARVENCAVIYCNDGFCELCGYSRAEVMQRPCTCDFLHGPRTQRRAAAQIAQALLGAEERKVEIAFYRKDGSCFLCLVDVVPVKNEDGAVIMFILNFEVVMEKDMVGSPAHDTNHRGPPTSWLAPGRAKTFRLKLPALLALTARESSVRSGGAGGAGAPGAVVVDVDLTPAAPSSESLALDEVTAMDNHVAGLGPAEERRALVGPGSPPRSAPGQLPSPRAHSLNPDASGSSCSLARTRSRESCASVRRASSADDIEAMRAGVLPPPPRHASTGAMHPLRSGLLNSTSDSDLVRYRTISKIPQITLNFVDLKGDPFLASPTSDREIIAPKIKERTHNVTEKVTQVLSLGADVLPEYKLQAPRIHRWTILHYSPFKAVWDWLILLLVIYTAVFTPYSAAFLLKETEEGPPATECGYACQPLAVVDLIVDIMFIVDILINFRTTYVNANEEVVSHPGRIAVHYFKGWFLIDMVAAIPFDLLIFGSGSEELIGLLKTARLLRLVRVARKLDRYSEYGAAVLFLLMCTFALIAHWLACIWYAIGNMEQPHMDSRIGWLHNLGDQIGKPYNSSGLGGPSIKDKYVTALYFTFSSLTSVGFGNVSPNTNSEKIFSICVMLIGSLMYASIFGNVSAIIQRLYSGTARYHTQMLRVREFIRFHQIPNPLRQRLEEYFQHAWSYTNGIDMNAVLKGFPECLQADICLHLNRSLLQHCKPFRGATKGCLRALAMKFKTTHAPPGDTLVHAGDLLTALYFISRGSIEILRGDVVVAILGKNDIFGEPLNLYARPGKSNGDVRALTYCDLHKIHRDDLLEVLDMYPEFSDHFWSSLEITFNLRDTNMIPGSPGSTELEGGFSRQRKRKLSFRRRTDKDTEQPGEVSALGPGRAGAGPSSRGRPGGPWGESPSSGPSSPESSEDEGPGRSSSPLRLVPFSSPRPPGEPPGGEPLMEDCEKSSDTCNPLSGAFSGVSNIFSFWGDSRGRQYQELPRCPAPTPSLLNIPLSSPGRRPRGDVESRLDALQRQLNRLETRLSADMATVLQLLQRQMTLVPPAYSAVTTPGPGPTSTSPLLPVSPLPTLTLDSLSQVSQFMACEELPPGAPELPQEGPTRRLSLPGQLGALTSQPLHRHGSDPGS

Rattus norvegicus [10] = assay: Antidiabetic activity in rat assessed as reduction of glucose AUC at 3 mg/kg by oral glucose tolerance test; assay type: functional

SMILES | Papp A→B [1] [×10⁻⁶ cm/s] | solubility [2] [µM] | logD [3] | EC50 (Hexokinase-4) [µM] | Activity [4] | IC50 [5] [µM] | IC50 [6] [µM] | IC50 [7] [µM] | inhibition in vivo at 10 mg/kg (Rattus norvegicus [8]) [%] | IC50 [9] [µM] | inhibition in vivo at 3 mg/kg (Rattus norvegicus [10]) [%]
COC[C@H](C)Oc1cc(Oc2ccc(S(C)(=O)=O)cc2)cc(C(=O)Nc2ccc(C(=O)O)cn2)c1 | 0.3 | > 3000 | -0.4 |  |  |  |  |  |  |  | 
COC[C@H](C)Oc1cc(Oc2cc(F)cc(F)c2)cc(C(=O)Nc2nccs2)c1 |  | < 0.7 | 4.1 | 0.07 |  |  |  |  |  |  | 
CC(C)COc1cc(OC(C)C)cc(C(=O)Nc2ccc(C(=O)O)cn2)c1 |  |  |  |  | Toxic | 0.135 | 22 | 0.01 |  |  | 
COC[C@H](C)Oc1cc(Oc2cc(F)cc(F)c2)cc(C(=O)Nc2ccc(C(=O)O)cn2)c1 | 7.4 | 805 (≈ 369 µg/mL) | 1.4 |  | Toxic | < 0.001 | 19 | < 0.001 |  |  | 
COC[C@H](C)Oc1cc(Oc2ccc(S(C)(=O)=O)cc2)cc(C(=O)Nc2nccs2)c1 | 54 | 20 (≈ 9.25 µg/mL) | 3.2 | 0.06 | Non-toxic |  |  | > 30 | 29 |  | 
COC[C@H](C)Oc1cc(O[C@@H](C)Cc2ccccc2)cc(C(=O)Nc2ccc(C(=O)O)cn2)c1 |  |  |  |  | Toxic | 32 | > 1000 | 0.47 |  |  | 
O=C(O)c1ccc(NC(=O)c2cc(OCc3ccccc3F)cc(OCc3ccccc3F)c2)nc1 |  |  |  |  | Toxic | 0.007 | 1.2 | 0.0111 |  |  | 
COC[C@H](C)Oc1cc(Oc2ccc(S(C)(=O)=O)cc2)cc(C(=O)Nc2nc(C)ns2)c1 | 29 | 129 (≈ 61.6 µg/mL) | 2.9 | 0.11 | Non-toxic |  |  | > 30 |  | 7.5 | 27
